Laboratory results as given in article PMC6677016, “Biochemical and structural explorations of α-hydroxyacid oxidases reveal a four-electron oxidative decarboxylation reaction” (Acta Crystallographica. Section D, Structural Biology, 2019).
Substitutions are numbered along the chain they refer to. Names and notes keep the numbering of the source. Blank lines part the entries; values can stand above or below the molecule they belong to.

Legend:
[1] = biological target: T1, p-Hydroxymandelate oxidase (Hmo) (Amycolatopsis orientalis, UniProt O52792); assay: crystal structure ([…] Å); type: binding
T1 construct: N-terminally His6-tagged protein

[2] = biological target: T1, p-Hydroxymandelate oxidase (Hmo); assay: crystal structure ([…] Å); type: binding; remark: listed apart in the source
[3] = biological target: T1, p-Hydroxymandelate oxidase (Hmo); assay: crystal structure ([…] Å) and ITC; type: binding
[4] = biological target: T2, p-Hydroxymandelate oxidase (Hmo) Y128F mutant (Amycolatopsis orientalis, UniProt O52792, Y128F); assay: crystal structure ([…] Å) and ITC; type: binding
T2 construct: N-terminally His6-tagged protein
T2 sequence (O52792 1-357 Y128F): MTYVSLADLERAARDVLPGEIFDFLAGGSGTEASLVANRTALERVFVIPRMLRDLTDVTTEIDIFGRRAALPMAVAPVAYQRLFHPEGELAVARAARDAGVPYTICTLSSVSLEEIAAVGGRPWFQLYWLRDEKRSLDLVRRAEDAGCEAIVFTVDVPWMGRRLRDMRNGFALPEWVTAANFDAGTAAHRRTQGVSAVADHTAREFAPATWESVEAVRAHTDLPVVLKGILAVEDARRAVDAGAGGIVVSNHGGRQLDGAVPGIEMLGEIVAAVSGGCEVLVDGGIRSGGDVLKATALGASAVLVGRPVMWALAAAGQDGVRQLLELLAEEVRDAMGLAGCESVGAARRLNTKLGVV

[5] = biological target: T2, p-Hydroxymandelate oxidase (Hmo) Y128F mutant; assay: crystal structure ([…] Å); type: binding
[6] = biological target: T2, p-Hydroxymandelate oxidase (Hmo) Y128F mutant; assay: crystal structure ([…] Å); type: binding; remark: listed apart in the source
[7] = biological target: T2, p-Hydroxymandelate oxidase (Hmo) Y128F mutant; assay: crystal structure ([…] Å); type: binding; remark: listed apart in the source
[8] = biological target: T1, p-Hydroxymandelate oxidase (Hmo); assay: crystal structure ([…] Å); type: binding; remark: listed apart in the source
[9] = biological target: the molecule itself; assay: crystal structure; hanging-drop vapor diffusion at 20°C, 35% Tascimate, 0.1 M bis-Tris propane pH 7.0; space group I422, one chain in the asymmetric unit, dimer by a crystallographic twofold axis
purified protein = substrate: O=C(O)[C@@H](O)c1ccccc1; assay: purified protein; conditions: FMN anchored by Tyr128, Arg163, His252 and Arg255; α-H points towards N5 of the isoalloxazine ring

Molecule: O=C(O)[C@@H](O)c1ccc(O)cc1 [4HSMA, 4-hydroxy-(S)-mandelate]
crystal structure (1.32 Å) [1]: complex with 4-hydroxy-(S)-mandelate, 5zzq

crystal structure (1.40 Å) [2]: complex with benzoate, 5zzs
Molecule: O=C(O)c1ccccc1 [BA, benzoate]

Molecule: O=C(O)C(=O)c1ccccc1 [BF, benzoylformate]
Kd [3]: 1.9 mM
Kd [4]: 1.4 mM

Molecule: O=C(O)C(=O)Cc1ccccc1 [PPY, phenylpyruvate]
crystal structure (1.45 Å) [5]: The Y128F mutant liganded with phenylpyruvate, an oxidized product, when soaked with phenyllactate

Molecule: O=C(O)[C@H](O)c1ccccc1 [RMA, (R)-mandelate]
crystal structure (1.50 Å) [6]: When the Y128F mutant is bound by (R)-mandelate, the structural conformation is similar to that of (S)-mandelate

Molecule: C[C@H](C(=O)O)c1ccccc1 [SPPA, (S)-2-phenylpropionate]
crystal structure (1.65 Å) [7]: complex with 2-phenylpropanoate, 6a0d
crystal structure (1.60 Å) [8]: (S)-2-phenylpropionate (inhibitor) all adopt a ‘V’ conformation with the carboxyl group orthogonal to the plane of the phenyl ring

B1: p-Hydroxymandelate oxidase (Hmo) from Amycolatopsis orientalis, wild type (enzyme)
chain: T2 sequence (O52792 1-357 Y128F)
notes: p-hydroxymandelate oxidase (Hmo, orf22), amplified from Amycolatopsis orientalis genomic DNA and subcloned into pET-28a(+) (NdeI/XhoI); one chain in the asymmetric unit, the dimer made by a crystallographic twofold axis; also called (S)-p-hydroxymandelate oxidase; WT Hmo; source: E. coli BL21(DE3), purified (Ni-NTA, size-exclusion chromatography)
stoichiometry N [9]: 2
Km (purified protein): 160 µM

B2: p-Hydroxymandelate oxidase (Hmo) Y128F mutant (enzyme, Amycolatopsis orientalis)
chain: T2 sequence (O52792 1-357 Y128F) with Y128F
notes: p-hydroxymandelate oxidase (Hmo, orf22) of Amycolatopsis orientalis in pET-28a(+), point mutant made by QuikChange on the wild-type hmo gene; Purified by the same protocol as wild-type Hmo; source: E. coli BL21(DE3), purified (Ni-NTA, size-exclusion chromatography)
stoichiometry N [9]: 2
